Values quoted from earlier work in patent publication US10596205B2, “Topical medicament for skin and mucosal injuries” (REV PHARMA Corp., priority 2018, dated 2020).

Columns and labels:
S. Mutans biofilm = conditions: for Biofilm biomass / Acidogenicity of the biofilm (pH drops): 10% sucrose then free fatty acid; for Acidogenicity of the biofilm (pH drops): compared with biofilms exposed to only 10% sucrose; for Enamel demineralization induced by sucrose: biofilms treated with the fatty acids
biofilm = conditions: animals, diet rich in the fatty acids
[1] = system: Gram-positive microorganisms; conditions: in vitro study

| Structure (SMILES) | Biofilm biomass (S. Mutans biofilm) | Acidogenicity of the biofilm (pH drops) (S. Mutans biofilm) | Enamel demineralization induced by sucrose (S. Mutans biofilm) | Quantity of bacteria in biofilm (biofilm) | Bacteriostatic effect [1] |
| --- | --- | --- | --- | --- | --- |
| CCCCCCCC/C=C\CCCCCCCC(=O)O [oleic, oleic acid] | decline in biomass | lower pH drops | significantly lower reduction | – | – |
| CCCCCCCCCCCC(=O)O [Lauric acid] | – | – | – | lower quantity of bacteria | highly bacteriostatic |
| CCCCC/C=C\C/C=C\CCCCCCCC(=O)O [linoleic, linoleic acid] | decline in biomass | lower pH drops | significantly lower reduction | lower quantity of bacteria | – |
